Tests used:
Experiment in all cases: relative viability (nuclei count vs DMSO), 5 days (fraction); higher = more cells survive
[1] = compound: CN(c1ncccc1CNc1nc(Nc2ccc3c(c2)CC(=O)N3)ncc1C(F)(F)F)S(C)(=O)=O + NC(=O)Nc1cc(-c2cccc(F)c2)sc1C(=O)N[C@H]1CCCNC1 [AZD7762] (partner 0.2 µM)
Outline: (§1)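 Lung cancer cell lines in 1536-well plates got either a single drug or a fixed anchor-drug dose together with five library-drug doses (not always all listed) in √10 steps, by pin tool, on the day after seeding. Nuclei were counted after 5 days, and relative viability is the treated-to-vehicle ratio of nuclei counts. Values are medians of duplicate plates.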

[2] = compound: CN(c1ncccc1CNc1nc(Nc2ccc3c(c2)CC(=O)N3)ncc1C(F)(F)F)S(C)(=O)=O + Cc1cc(Nc2cc(N3CCN(C)CC3)nc(Sc3ccc(NC(=O)C4CC4)cc3)n2)n[nH]1 [Tozasertib] (partner 0.1 µM)
Outline: as §1

[3] = compound: CN(c1ncccc1CNc1nc(Nc2ccc3c(c2)CC(=O)N3)ncc1C(F)(F)F)S(C)(=O)=O + CC(C)C[C@H](NC(=O)[C@H](Cc1ccccc1)NC(=O)c1cnccn1)B(O)O [Bortezomib] (partner 0.002 µM)
Outline: as §1

[4] = compound: CN(c1ncccc1CNc1nc(Nc2ccc3c(c2)CC(=O)N3)ncc1C(F)(F)F)S(C)(=O)=O + Nc1ncn([C@H]2C[C@H](O)[C@@H](CO)O2)c(=O)n1 [Decitabine] (partner 2 µM)
Outline: as §1

Cell Line | relative viability ([1]; first compound 0.01 µM) | relative viability ([1]; first compound 0.03162 µM) | relative viability ([1]; first compound 0.1 µM) | relative viability ([1]; first compound 0.3162 µM) | relative viability ([1]; first compound 1 µM) | relative viability ([2]; first compound 0.01 µM) | relative viability ([2]; first compound 0.03162 µM) | relative viability ([2]; first compound 0.1 µM) | relative viability ([2]; first compound 0.3162 µM) | relative viability ([2]; first compound 1 µM) | relative viability ([3]; first compound 0.01 µM) | relative viability ([3]; first compound 0.03162 µM) | relative viability ([3]; first compound 0.1 µM) | relative viability ([3]; first compound 0.3162 µM) | relative viability ([3]; first compound 1 µM) | relative viability ([4]; first compound 0.01 µM) | relative viability ([4]; first compound 0.03162 µM) | relative viability ([4]; first compound 0.1 µM) | relative viability ([4]; first compound 0.3162 µM) | relative viability ([4]; first compound 1 µM)
LCLC-97TM1 | 0.264 | 0.278 | 0.218 | 0.267 | 0.195 | 0.281 | 0.194 | 0.256 | 0.218 | 0.18 | 1.04 | 0.74 | 0.439 | 0.559 | 0.526 | 0.228 | 0.212 | 0.2 | 0.238 | 0.215
HARA | 0.49 | 0.351 | 0.368 | 0.355 | 0.455 | 0.11 | 0.117 | 0.116 | 0.0944 | 0.0785 | 1.12 | 1.07 | 1.13 | 1.2 | 1.09 | 0.66 | 0.599 | 0.492 | 0.597 | 0.573
HCC-78 | 0.859 | 0.646 | 0.644 | 0.565 | 0.521 | 0.463 | 0.428 | 0.427 | 0.45 | 0.332 | 0.567 | 0.587 | 0.502 | 0.462 | 0.422 | 0.755 | 0.699 | 0.719 | 0.636 | 0.697
NCI-H1666 | 0.978 | 0.834 | 0.838 | 0.932 | 0.847 | 0.606 | 0.615 | 0.514 | 0.725 | 0.362 | 0.887 | 0.678 | 0.668 | 0.708 | 0.589 | 0.729 | 0.749 | 0.642 | 0.666 | 0.628
NCI-H2347 | 0.818 | 0.654 | 0.782 | 0.733 | 0.685 | 0.544 | 0.626 | 0.672 | 0.44 | 0.478 | 1.08 | 0.93 | 0.927 | 0.801 | 0.45 | 0.655 | 0.598 | 0.587 | 0.593 | 0.57
NCI-H838 | 0.994 | 0.955 | 0.964 | 0.861 | 0.933 | 0.27 | 0.336 | 0.261 | 0.272 | 0.19 | 0.767 | 0.923 | 0.88 | 0.942 | 0.598 | 0.46 | 0.472 | 0.5 | 0.444 | 0.397
NCI-H2023 |  |  |  |  |  | 0.377 | 0.403 | 0.368 | 0.299 | 0.229 | 0.985 | 1.02 | 0.963 | 0.945 | 0.938 | 0.23 | 0.259 | 0.218 | 0.234 | 0.202
201T | 0.617 | 0.582 | 0.688 | 0.654 | 0.604 | 0.921 | 1 | 0.912 | 0.845 | 0.894 | 1.1 | 1.09 | 1.04 | 1.01 | 1.08 | 0.846 | 0.856 | 0.808 | 0.85 | 0.771
NCI-H1915 | 0.762 | 0.654 | 0.696 | 0.703 | 0.76 | 0.488 | 0.488 | 0.462 | 0.424 | 0.373 | 0.988 | 1.05 | 1.01 | 0.888 | 0.963 | 0.278 | 0.258 | 0.264 | 0.247 | 0.256
NCI-H2009 |  |  |  |  |  | 0.631 | 0.696 | 0.744 | 0.693 | 0.625 | 1.32 | 1.04 | 1.02 | 0.991 | 0.955 | 0.425 | 0.362 | 0.372 | 0.4 | 0.448
BEN | 0.721 | 0.709 | 0.73 | 0.774 | 0.563 | 0.416 | 0.562 | 0.506 | 0.541 | 0.471 | 0.821 | 0.772 | 0.993 | 0.865 | 0.856 | 0.739 | 0.739 | 0.715 | 0.763 | 0.671
PC-14 | 0.393 | 0.443 | 0.426 | 0.385 | 0.311 | 0.531 | 0.705 | 0.54 | 0.59 | 0.52 | 1.02 | 0.935 | 0.984 | 0.799 | 0.821 | 0.197 | 0.225 | 0.254 | 0.245 | 0.269
SK-MES-1 |  |  |  |  |  | 0.896 | 0.923 | 0.852 | 0.836 | 0.47 |  |  |  |  |  | 0.441 | 0.467 | 0.465 | 0.36 | 0.363
NCI-H727 | 0.595 | 0.555 | 0.447 | 0.842 | 0.69 | 0.675 | 0.549 | 0.571 | 0.543 | 0.52 | 0.897 | 1 | 0.73 | 0.765 | 0.731 | 0.943 | 0.827 | 0.793 | 0.896 | 0.936
NCI-H1355 | 0.866 | 0.864 | 0.944 | 0.732 | 0.697 | 0.538 | 0.513 | 0.557 | 0.496 | 0.501 | 1.29 | 1.28 | 1.14 | 1.14 | 1.07 | 0.368 | 0.36 | 0.337 | 0.404 | 0.379
NCI-H1975 | 0.85 | 0.839 | 0.822 | 0.645 | 0.755 | 0.737 | 0.793 | 0.784 | 0.665 | 0.46 | 0.423 | 0.449 | 0.44 | 0.395 | 0.276 | 0.423 | 0.403 | 0.432 | 0.417 | 0.436
LK-2 | 0.542 | 0.517 | 0.413 | 0.434 | 0.397 | 0.201 | 0.163 | 0.174 | 0.169 | 0.182 |  |  |  |  |  | 0.287 | 0.294 | 0.31 | 0.308 | 0.292

Source: the supplement of paper PMC10307832
